According to patent publication US5416212A, “Anilide derivatives” (Taisho Pharmaceutical Co., Ltd., priority 1991, dated 1995):
Structures can show the parent of a compound that is named as a salt.

molecular target: T1, ACAT (Oryctolagus cuniculus, UniProt G1SFD9); assay: Test of ACAT Inhibitory Activity (rabbit small intestinal microsome fraction); assay type: biochemical; conditions: rabbit small intestinal microsomes, [1-14C]oleyl coenzyme, pH 7.4, 37° C., 6 minutes
T1 construct: A microsome fraction of a rabbit small intestine prepared in a usual manner; from tissue; host or cells: rabbit small intestine, microsome fraction
T1 sequence (G1SFD9 1-524): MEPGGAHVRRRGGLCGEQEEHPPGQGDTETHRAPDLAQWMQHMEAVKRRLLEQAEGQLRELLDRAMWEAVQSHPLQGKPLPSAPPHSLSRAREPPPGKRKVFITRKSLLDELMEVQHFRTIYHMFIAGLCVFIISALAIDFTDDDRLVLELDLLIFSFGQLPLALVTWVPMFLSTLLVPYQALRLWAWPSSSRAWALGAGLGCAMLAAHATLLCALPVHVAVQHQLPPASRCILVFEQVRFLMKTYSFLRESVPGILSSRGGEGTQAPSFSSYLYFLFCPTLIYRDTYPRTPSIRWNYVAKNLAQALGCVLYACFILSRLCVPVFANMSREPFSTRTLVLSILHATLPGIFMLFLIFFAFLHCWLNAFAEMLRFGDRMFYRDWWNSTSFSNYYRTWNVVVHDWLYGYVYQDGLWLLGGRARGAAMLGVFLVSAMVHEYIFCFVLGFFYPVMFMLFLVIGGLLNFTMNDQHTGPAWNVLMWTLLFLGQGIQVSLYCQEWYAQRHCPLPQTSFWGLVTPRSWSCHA
Experimental: Test of ACAT Inhibitory Activity
The test was carried out in accordance with the method described in J. Lipid Res., Vol. 22, p.
A microsome fraction of a rabbit small intestine prepared in a usual manner was suspended in a 0.04N potassium phosphate buffer solution (pH 7.4) containing 0.1N sucrose, 0.03N ethylenediaminetetraacetic acid (EDTA), and 0.05N potassium chloride. Each drug to be tested was dissolved in dimethyl sulfoxide.
The rabbit small intestinal microsome fraction suspension prepared above (250 μg as protein) and [1-^14 C]oleyl coenzyme were added to a 0.05N phosphate buffer solution (pH 7.4) containing 1% bovine serum albumin, followed by addition of a drug to be tested in a varied concentration. The total volume of the mixture was adjusted to 500 μl to prepare a sample. For control, a sample was prepared in the same manner, except for adding no test drug. The sample was incubated at 37° C. for 6 minutes, and the reaction was terminated by addition of a mixture of chloroform and methanol (mixing ratio=2:1). After stirring, the chloroform layer was collected and concentrated to dryness. […] A gel portion corresponding to cholesterol oleate was scraped, and its radioactivity was measured with a liquid scintillation counter (LSC-3000, manufactured by Aloka Co., Ltd.). Percent inhibition on ACAT activity was calculated using the following equation to obtain an IC50 value. [formula]

CC(C)c1cccc(C(C)C)c1NC(=O)CSCCCCCCCCCCCCN1CCN(c2ccccc2)CC1 [Compound 24, N-(2,6-Diisopropylphenyl)-2-[12-(4-phenylpiperazinyl)dodecylthio]acetamide] and CC(C)c1cccc(C(C)C)c1NC(=O)CSCCCCCCCCCCN1CCN(c2ccccc2)CC1 [Compound 23, N-(2,6-Diisopropylphenyl)-2-[10-(4-phenylpiperazinyl)decylthio]acetamide] fall in the same range of IC50: 10 to 100 nM for the first, 10 to 100 nM for the second.

CC(C)c1cccc(C(C)C)c1NC(=O)CSCCCCN1CCN(c2ccccc2)CC1 [Compound 19, N-(2,6-Diisopropylphenyl)-2-[4-(4-phenylpiperazinyl)butylthio]acetamide dihydrochloride] and CC(C)c1cccc(C(C)C)c1NC(=O)CSCCCN1CCN(c2ccccc2)CC1 [Compound 18, N-(2,6-Diisopropylphenyl)-2-[3-(4-phenylpiperazinyl)propylthio]acetamide dihydrochloride] fall in the same range of IC50: 10 to 100 nM for the first, 10 to 100 nM for the second.

COc1ccc(N2CCN(CCCCCCSCC(=O)Nc3c(C(C)C)cccc3C(C)C)CC2)cc1 [Compound 3, N-(2,6-Diisopropylphenyl)-2-{6-[4-(4methoxyphenyl)piperazinyl]hexylthio}acetamide] and CC(C)c1cccc(C(C)C)c1NC(=O)CSCCCCCCN1CCN(c2ccc(F)cc2)CC1 [Compound 11, N-(2,6-Diisopropylphenyl)-2-{6-[4-(4-fluorophenyl)piperazinyl]hexylthio}acetamide] fall in the same range of IC50: 10 to 100 nM for the first, 10 to 100 nM for the second.

CC(C)c1cccc(C(C)C)c1NC(=O)CSCCCCCCN1CCN(c2cccc(C(F)(F)F)c2)CC1 [Compound 10, N-(2,6-Diisopropylphenyl)-2-{6-[4-(3-trifluoromethylphenyl)piperazinyl]hexylthio}acetamide] and Cc1cccc(N2CCN(CCCCCCSCC(=O)Nc3c(C(C)C)cccc3C(C)C)CC2)c1 [Compound 8, N-(2,6-Diisopropylphenyl)-2-{6-[4-(3-methylphenyl)piperazinyl]hexylthio}acetamide] fall in the same range of IC50: 10 to 100 nM for the first, 10 to 100 nM for the second.

Compared with CC(C)c1cccc(C(C)C)c1NC(=O)CSCCCCCCCCN1CCN(c2ccccc2)CC1 [Compound 21, N-(2,6-Diisopropylphenyl)-2-[8-(4-phenylpiperazinyl)octylthio]acetamide], CC(C)c1cccc(C(C)C)c1NC(=O)CSCCCCCCCCCN1CCN(c2ccccc2)CC1 [Compound 22, N-(2,6-Diisopropylphenyl)-2-[9-(4-phenylpiperazinyl)nonylthio]acetamide] is higher in IC50: 1 to 10 nM for the first, 10 to 100 nM for the second.

CC(C)c1cccc(C(C)C)c1NC(=O)CSCCCCCCN1CCN(c2ccccc2)CC1 [Compound 1, N-(2,6-Diisopropylphenyl)-2-[6-(4-phenylpiperazinyl)hexylthio]acetamide] and CC(C)c1cccc(C(C)C)c1NC(=O)CSCCCCCCCN1CCN(c2ccccc2)CC1 [Compound 25, N-(2,6-Diisopropylphenyl)-2-[7-(4-phenylpiperazinyl)heptylthio]acetamide] fall in the same range of IC50: 10 to 100 nM for the first, 10 to 100 nM for the second.

CC(C)c1cccc(C(C)C)c1NC(=O)CSCCCCCCN1CCN(c2cccc(Cl)c2)CC1 [Compound 7, N-(2,6-Diisopropylphenyl)-2-{6-[4-(3-chlorophenyl)piperazinyl]hexylthio}acetamide] and CC(C)c1cccc(C(C)C)c1NC(=O)CSCCCCCCN1CCN(c2ccc(Cl)cc2)CC1 [Compound 16, N-(2,6-Diisopropylphenyl)-2-{6-[4-(4-chlorophenyl)piperazinyl]hexylthio}acetamide] fall in the same range of IC50: 10 to 100 nM for the first, 10 to 100 nM for the second.

CC(C)c1cccc(C(C)C)c1NC(=O)CSCCCCCCN1CCN(c2ccccn2)CC1 [Compound 5, N-(2,6-Diisopropylphenyl)-2-{6-[4-(2pyridyl)piperazinyl]hexylthio}acetamide] and CC(C)c1cccc(C(C)C)c1NC(=O)CSCCCCCCN1CCN(c2cc(Cl)ccn2)CC1 [Compound 15, N-(2,6-Diisopropylphenyl)-2-{6-[4-(4-chloro-2-pyridyl)piperazinyl]hexylthio}acetamide] fall in the same range of IC50: 10 to 100 nM for the first, 10 to 100 nM for the second.

Cc1ccccc1N1CCN(CCCCCCSCC(=O)Nc2c(C(C)C)cccc2C(C)C)CC1 [Compound 9, N-(2,6-Diisopropylphenyl)-2-{6-[4-(2-methylphenyl)piperazinyl]hexylthio}acetamide fumarate] and CC(C)c1cccc(C(C)C)c1NC(=O)CSCCCCCCN1CCN(c2ccccc2Cl)CC1 [Compound 4, N-(2,6-Diisopropylphenyl)-2-{6-[4-(2-chlorophenyl)piperazinyl]hexylthio}acetamide] fall in the same range of IC50: 10 to 100 nM for the first, 10 to 100 nM for the second.

COc1ccccc1N1CCN(CCCCCCSCC(=O)Nc2c(C(C)C)cccc2C(C)C)CC1 [Compound 2, N-(2,6-Diisopropylphenyl)-2-{6-[4-(2-methoxyphenyl)piperazinyl]hexylthio}acetamide dihydrochloride] and CC(C)c1cccc(C(C)C)c1NC(=O)CSCCCCCCN1CCN(c2ccccc2[N+](=O)[O-])CC1 [Compound 12, N-(2,6-Diisopropylphenyl)-2-{6-[4-(2-nitrophenyl)piperazinyl]hexylthio}acetamide] fall in the same range of IC50: 10 to 100 nM for the first, 10 to 100 nM for the second.

CC(C)c1cccc(C(C)C)c1NC(=O)CSCCCCCCN1CCN(c2cccc(C(F)(F)F)n2)CC1 [Compound 14, N-(2,6-Diisopropylphenyl)-2-{6-[4-(6-trifluoromethyl-2-pyridyl)piperazinyl]hexylthio}acetamide] and CC(C)c1cccc(C(C)C)c1NC(=O)CSCCCCCCN1CCN(c2ncccn2)CC1 [Compound 6, N-(2,6-Diisopropylphenyl)-2-{6-[4-(2-pyrimidyl)piperazinyl]hexylthio}acetamide] fall in the same range of IC50: 10 to 100 nM for the first, 10 to 100 nM for the second.

Work on CC(C)c1cccc(C(C)C)c1NC(=O)CSCCN1CCN(c2ccccc2)CC1 [Compound 17, N-(2,6-Diisopropylphenyl)-2-[2-(4-phenylpiperazinyl)ethylthio]acetamide dihydrochloride] yielded an IC50 of 10 to 100 nM.

test system: Normal Rat; assay: Test of Lipid Reduction in Normal Rat; assay type: in vivo, rat (male Wister); conditions: compared with the control, oral 100 mg/kg for 3 days
Experimental: Test of Lipid Reduction in Normal Rat
Five 5-week-old male Wister rats per group were used as test animals. Each test drug was orally administered to the rat at a dose of 100 mg/kg for 3 days. A blood sample was taken from the rat having been deprive of food for 18 hours from the final administration, and the serum was separated. A total cholesterol value and a total triglyceride value were measured with an autoanalyzer (Hitachi 7150) in accordance with an enzyme method (Autosera, manufactured by Daiichi Kagaku K.K.). Lipoprotein was separated by a precipitation method (HDL-C.2, manufactured by Daiichi Kagaku K.K.), and the cholesterol in the lipoprotein was determined by an enzyme method. Five ml/kg of each test drug suspended in a 0.2% aqueous solution of sodium carboxymethyl cellulose was administered. For control, the same sodium carboxymethyl cellulose solution containing no test drug was administered.
Note: "Percent change" in Tables 2 and 3 is a rate of change in the respective cholesterol value compared with the control.

First: CC(C)c1cccc(C(C)C)c1NC(=O)CSCCCCCCN1CCN(c2ccccc2)CC1 [Compound 1, N-(2,6-Diisopropylphenyl)-2-[6-(4-phenylpiperazinyl)hexylthio]acetamide]
Second: CCCCCCCCCCC(C)(C)C(=O)Nc1c(OC)cc(OC)cc1OC [Compound B, N-(2,4,6-Trimethoxyphenyl)-2,2-dimethyldodecylamide, reference compound]
The “Cholesterol in High Density Lipoprotein, Percent Change” value of the first is lower: 3.4% for the first, 15.5% for the second.

First: CC(C)c1cccc(C(C)C)c1NC(=O)CSCCCCCCN1CCN(c2ccccc2)CC1 [Compound 1, N-(2,6-Diisopropylphenyl)-2-[6-(4-phenylpiperazinyl)hexylthio]acetamide]
Second: CCCCCCCCCCC(C)(C)C(=O)Nc1c(OC)cc(OC)cc1OC [Compound B, N-(2,4,6-Trimethoxyphenyl)-2,2-dimethyldodecylamide, reference compound]
The “Cholesterol in Low Density Lipoprotein, Percent Change” value of the first is lower: -50.8% for the first, 0.0% for the second.

Going from CC(C)c1cccc(C(C)C)c1NC(=O)CSCCCCCCN1CCN(c2ccccc2)CC1 [Compound 1, N-(2,6-Diisopropylphenyl)-2-[6-(4-phenylpiperazinyl)hexylthio]acetamide] to CCCCCCCCCCC(C)(C)C(=O)Nc1c(OC)cc(OC)cc1OC [Compound B, N-(2,4,6-Trimethoxyphenyl)-2,2-dimethyldodecylamide, reference compound], the “Total Cholesterol in Serum, Percent Change” value rises from -12.2% to 7.1%.

Compared with CC(C)c1cccc(C(C)C)c1NC(=O)CSCCCCCCN1CCN(c2ccccc2)CC1 [Compound 1, N-(2,6-Diisopropylphenyl)-2-[6-(4-phenylpiperazinyl)hexylthio]acetamide], CCCCCCCCCCC(C)(C)C(=O)Nc1c(OC)cc(OC)cc1OC [Compound B, N-(2,4,6-Trimethoxyphenyl)-2,2-dimethyldodecylamide, reference compound] is higher in “Total Triglyceride in Serum, Percent Change” value: -41.6% for the first, 18.8% for the second.

same assay, conditions: oral 100 mg/kg for 3 days, fasted 18 hours

Going from CC(C)c1cccc(C(C)C)c1NC(=O)CSCCCCCCN1CCN(c2ccccc2)CC1 [Compound 1, N-(2,6-Diisopropylphenyl)-2-[6-(4-phenylpiperazinyl)hexylthio]acetamide] to CCCCCCCCCCC(C)(C)C(=O)Nc1c(OC)cc(OC)cc1OC [Compound B, N-(2,4,6-Trimethoxyphenyl)-2,2-dimethyldodecylamide, reference compound], the “Cholesterol in High Density Lipoprotein, Measured Value” rises from 46.0 ± 1.7 mg/dL to 51.4 ± 2.2 mg/dL.

CC(C)c1cccc(C(C)C)c1NC(=O)CSCCCCCCN1CCN(c2ccccc2)CC1 [Compound 1, N-(2,6-Diisopropylphenyl)-2-[6-(4-phenylpiperazinyl)hexylthio]acetamide] and CCCCCCCCCCC(C)(C)C(=O)Nc1c(OC)cc(OC)cc1OC [Compound B, N-(2,4,6-Trimethoxyphenyl)-2,2-dimethyldodecylamide, reference compound] are within error of each other in “Cholesterol in Low Density Lipoprotein, Measured Value”: 5.8 ± 2.0 mg/dL for the first, 11.8 ± 5.1 mg/dL for the second.

First: CC(C)c1cccc(C(C)C)c1NC(=O)CSCCCCCCN1CCN(c2ccccc2)CC1 [Compound 1, N-(2,6-Diisopropylphenyl)-2-[6-(4-phenylpiperazinyl)hexylthio]acetamide]
Second: CCCCCCCCCCC(C)(C)C(=O)Nc1c(OC)cc(OC)cc1OC [Compound B, N-(2,4,6-Trimethoxyphenyl)-2,2-dimethyldodecylamide, reference compound]
The “Total Cholesterol in Serum, Measured Value” of the first is lower: 51.8 ± 3.2 mg/dL for the first, 63.2 ± 3.1 mg/dL for the second.

Compared with CC(C)c1cccc(C(C)C)c1NC(=O)CSCCCCCCN1CCN(c2ccccc2)CC1 [Compound 1, N-(2,6-Diisopropylphenyl)-2-[6-(4-phenylpiperazinyl)hexylthio]acetamide], CCCCCCCCCCC(C)(C)C(=O)Nc1c(OC)cc(OC)cc1OC [Compound B, N-(2,4,6-Trimethoxyphenyl)-2,2-dimethyldodecylamide, reference compound] is higher in “Total Triglyceride in Serum, Measured Value”: 51.6 ± 2.7 mg/dL for the first, 108.0 ± 5.1 mg/dL for the second.
